The values below come from US20210254101A1, “METHODS FOR TREATING SPINAL CORD INJURY” (THE CHILDREN'S MEDICAL CENTER CORPORATION, priority 2018, published 2021).

The test system of data set [1] is mice with staggered lesions. The data set can be described thus: Basso Mouse Scale (BMS) open field locomotion after staggered T7/T10 lateral hemisections. It counts as in vivo. To be noted: for stepping ability / functional recovery (BMS), chronic compound treatment: daily i.p. treatment from 1 week after injury, BMS about 24 h after previous dose, FIG. 1E, 7A. The method, then:
A staggered lesion paradigm was optimized in which two lateral hemisections were performed at the thoracic (T) 7 and T10 levels simultaneously (FIGS. 1A and 1B), similar to the model previously described (Courtine 2008; van den Brand, 2012). The T10 lesion is a lateral hemisection that ends at the spinal cord midline, while the T7 lesion, contralateral to the T10 lesion, extends slightly beyond the midline (FIG. 1A). With this double hemisection procedure, all descending axons passing T10 are severed, leaving only those crossing the midline between T7 and T10 intact (FIG. 1C). Indeed, by immunohistochemistry with anti-5-HT antibodies, which label serotonergic axons, descending serotonergic axons could be detected in the spinal cord segments between the lesions, but not in the lumbar spinal cord (FIG. 1C). Thus, a relay zone remains between and around the lesions (T7 and T10) where descending axons terminate, and where some propriospinal neurons maintain their connections with lumbar spinal neurons (see herein below).
This double hemisection SCI model was used to seek small molecule compounds that could reactivate the spared, but dormant, spinal connections by monitoring hindlimb motor performance during over-ground locomotion. To this end, daily compound treatment was started 1 week after injury and then monitored the BMS scores approximately 24 hours after the previous day's compound treatment on a weekly basis (FIG. 1D). Behavioral outcomes observed at these time points likely reflect sustained effects of the treatment, which are more clinically relevant.
Surgical Procedures. The procedure of T7 and T10 double lateral hemisection was similar to that described elsewhere (Courtine et al., 2008; van den Brand et al., 2012). Briefly, a midline incision was made over the thoracic vertebrae, followed by a T7-10 laminectomy. For the T7 right side over-hemisection, a scalpel and micro-scissors were carefully used to interrupt the bilateral dorsal column at T7, and ensured no sparing of ventral pathways on the contralateral side (FIG. 1A). For the T10 left hemisection, a scalpel and micro-scissors were carefully used to interrupt only the left side of the spinal cord until the midline. The muscle layers were then sutured, and the skin was secured with wound clips. All animals received post hoc histological analysis, and those with spared 5HT axons at the lumbar spinal cord (L2-5) were excluded for behavioral analysis (FIG. 7).
(§1) Behavioral Experiments. Motor function was evaluated with a locomotor open field rating scale on the Basso Mouse Scale (BMS). For transient pharmacological treatments, ten to fifteen minutes (van den Brand et al., 2012) prior to behavioral tests (grounding walking, all of which were performed individually), mice received systematic administration (i.p.) of the neural modulators listed above. It is important to note that with a single intraperitoneal injection, plasma CNO levels peak at 15 min and become very low by 2 h after injection (Guettier et al., 2009). For chronic pharmacological treatments, 24 hours prior to behavioral tests, mice received systematic administration of the compounds listed above. All behavioral tests were completed within 1-3 hours. For detailed hindlimb kinematic analysis, mice from different groups were placed in the MotoRater (TSE Systems, (Zorner et al., 2010)), and all kinematic analysis was performed based on data collected by the MotoRater.

For data set [2] the following is noted: Guettier et al., 2009, cited from earlier work.
The next data set relates to c-Fos. Put plainly: c-Fos immunoreactivity in spinal cord segments between T7 and T10 after 1 hour walking. It counts as in vivo, mouse. To be noted: chronic treatment. The source says: In mature neurons, GABA and glycine are inhibitory because they open chloride channels, which allow chloride ion influx leading to hyperpolarization. In contrast, during development, the elevated intracellular chloride levels render GABAA- and glycine-mediated currents depolarizing and generally excitatory. During early postnatal life, KCC2 upregulation in postnatal neurons is crucial for reducing intracellular chloride concentrations, transforming excitation into inhibition (Ben-Ari et al., 2012; Kaila et al., 2014). Thus, injury-induced KCC2 down-regulation (Boulenguez et al., 2010; Cote et al., 2014) would be expected to restore an immature state in which GABA and glycine receptors can depolarize neurons. In this scenario, KCC2 activation in spinal inhibitory neurons would transform local circuits in the relay zone towards a more physiological state, which is more receptive to descending inputs. To examine this, c-Fos immunoreactivity was used as a proxy of neuronal activity in the spinal cord segments between T7 and T10 at 8 weeks after injury, and after walking on a treadmill for 1 hour. In each group, the majority of c-Fos-positive cells in these spinal segments were also positively stained with NeuN, a neuronal marker (FIG. 11A, 11B). In injured mice without treatment, the c-Fos-positive neurons were concentrated in the dorsal horn of the spinal cord (FIG. 5A-5C), perhaps reflecting hypersensitivity to peripheral sensory inputs in these injured mice. […] This KCC2-transformed distribution pattern is similar to what was detected in intact mice, in response to walking (FIG. 5A-5C).
Immunohistochemistry and Imaging. The paraformaldehyde (PFA) fixed tissues were cryo-protected with 30% sucrose and processed using cryostat (section thickness 40 μm for spinal cord). Sections were treated with a blocking solution containing 10% normal donkey serum with 0.5% Triton-100 for 2 hours at room temperature before staining. The primary antibodies (4 □, overnight) used were: rabbit anti-GFAP [DAKO (Z0334), 1:600]; rabbit anti-5-HT [Immunostar (20080), 1:5,000]; chicken anti-GFP [Abcam (ab13970), 1:400]; rabbit anti-RFP [Abcam (ab34771), 1:400]; rabbit anti-PKCγ [Santa Cruz (sc211), 1:100]; rat anti-HA [Sigma (11867423001), 1:200]; rabbit anti-c-Fos [Cell signaling (2250s), 1:100]; and mouse anti-NeuN [Millipore (MAB377), 1:400]. Secondary antibodies (room temperature, 2 h) included: Alexa Fluor 488-conjugated donkey anti chicken and rabbit; and Alexa Fluor 594-conjugated donkey anti rabbit (all from Invitrogen). c-Fos immunoreactivity of spinal neurons was determined as previously described (Courtine et al., 2009), after 1-hour of continuous quadrupedal free walking (intact), stepping (CLP290 or AAV-KCC2 treated mice) or dragging (vehicle or AAV-GFP treated mice). The mice were returned to their cages, and were then anesthetized and sacrificed by intracardial perfusion of 4% PFA (wt/vol) in phosphate buffered saline (PBS) about 2 hours later.

A further data set relates to neuropathic pain. To be noted: animal models; Gagnon et al., 2013; Ferrini et al., 2017; Knabl et al., 2008; cited from earlier work.
Data set [3] concerns mice with a complete T8 spinal cord transection. Put plainly: BMS open field locomotion after complete T8 spinal cord transection. It counts as in vivo, mouse. Conditions: T8 complete transection, FIG. 7F.
Text: CLP290's effects could result from reactivating the spared dormant descending connections in the spinal cord after SCI. However, it could also act directly on the lumbar spinal cord, independently of descending inputs. […] Therefore, different from this transient effector that acts directly on the lumbar spinal cord, the effects of CLP290 on functional improvement are dependent on spared connections.
The procedure of T8 full transection was similar to that described elsewhere (Courtine et al., 2009). Briefly, a midline incision was made over the thoracic vertebrae, followed by a T8 laminectomy. The complete T8 transection was then performed carefully using both a scalpel and micro-scissors. The muscle layers were then sutured and the skin was secured with wound clips.
as §1

Setting [4] is: T8/9, 8 weeks after injury, FIG. 5A-5C.

`CCCCNc1cc(C(=O)O)cc(S(N)(=O)=O)c1Oc1ccccc1` [Bumetanide]: the “stepping ability / functional recovery (BMS), chronic compound treatment” value in data set [1] is reported as “some effects, but without statistical significance”.
In the case of `C[N+]1([O-])CCN(C2=Nc3cc(Cl)ccc3Nc3ccccc32)CC1` [CNO, Clozapine N-oxide], the “plasma CNO levels” value in data set [2] (by 2 h after single intraperitoneal injection) was “very low”. Besides, the “time of peak plasma CNO levels” value in data set [2] (single intraperitoneal injection) was 15 min.
Take `Cn1ncnc1COc1nn2c(-c3cc(F)ccc3F)nnc2cc1C(C)(C)C` [L838,417]: in the data set on c-Fos (setting [4]), the “c-Fos-positive neurons in the dorsal horn (laminae I-V)” value is recorded as “reduced c-Fos-positive neurons in dorsal horn”; the “c-Fos-positive neurons in the intermediate/ventral spinal cord” value is “without increasing those in intermediate zones and ventral region”. The “neuronal activation levels across spinal cord regions” value with c-Fos (staggered injured mice) was “reduced neuronal activation levels in all spinal cord regions”. The “effect on neuropathic pain” value in the data set with neuropathic pain is on record as “reduce neuropathic pain”. Moreover, the “stepping ability / functional recovery (BMS), chronic compound treatment” value in data set [1] is “failed to promote functional motor recovery”.
As to `c1ccc2nc(N3CCNCC3)ccc2c1` [quipazine], the “BMS improvement measured acutely after compound administration” value is “rapid, but transient, BMS improvement” in data set [3] (8 weeks, no chronic treatment) and “rapid, but transient, BMS improvement” in data set [1] (staggered lesion, 8 weeks after SCI, FIG. 7B). For the same compound, the “duration of acute BMS improvement / locomotion after administration” value in data set [3] is “less than 2 hours”; in data set [1] (staggered lesion, FIG. 7B), “less than 2 hours”. The “start of acute BMS improvement after administration” value turned out to be 10 min in data set [3] and 10 min in data set [1] (staggered lesion, FIG. 7B).
